Results from patent US9999619B2, “Piperidin-4-yl azetidine derivatives as JAK1 inhibitors” (Incyte Corporation, priority 2010, dated 2018).

Assays:
Assay type in all cases: biochemical
[1] = target: human JAK1 (a.a. 837-1142); test: In vitro JAK kinase assay (HTRF, phosphorylation of a biotinylated peptide), JAK1; details: ratio of JAK2 IC50 to JAK1 IC50, measured at 1 mM ATP
Procedure, shortened: (§1)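 Phosphorylation of a biotinylated peptide by purified His-tagged JAK catalytic domains (insect-cell baculovirus expression) ran 1 hr at room temperature. After stopping with EDTA, Eu-Py20 and SA-APC were bound for 40 minutes and HTRF measured.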

[2] = target: human JAK1 (a.a. 837-1142) (Homo sapiens, UniProt P23458); test: as above; details: measured at 1 mM ATP
Procedure, shortened: as §1

Jak2 (a.a. 828-1132) = Jak2 (a.a. 828-1132) (Homo sapiens (Human), UniProt O60674); test: In vitro JAK kinase assay (HTRF, phosphorylation of a biotinylated peptide), JAK2; details: measured at 1 mM ATP
Jak2 (a.a. 828-1132), sequence (O60674 828-1132): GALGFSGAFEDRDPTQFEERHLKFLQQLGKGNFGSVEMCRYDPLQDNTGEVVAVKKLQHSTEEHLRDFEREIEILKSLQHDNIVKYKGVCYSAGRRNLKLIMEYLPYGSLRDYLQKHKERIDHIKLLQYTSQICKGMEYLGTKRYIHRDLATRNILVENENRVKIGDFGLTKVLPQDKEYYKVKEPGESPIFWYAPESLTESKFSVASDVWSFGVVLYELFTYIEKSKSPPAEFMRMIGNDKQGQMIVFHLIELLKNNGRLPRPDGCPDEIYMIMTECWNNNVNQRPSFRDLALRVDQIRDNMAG
Procedure, shortened: as §1

Compound | IC50 Ratio JAK2/JAK1 [1] | IC50 [2] | IC50 (Jak2 (a.a. 828-1132))
N#CCC1(n2cc(-c3ncnc4[nH]ccc34)cn2)CN(C2CCN(C(=O)C3CCc4ccccc4C3)CC2)C1 (stereo not drawn) [Example 97, {3-[4-(7H-pyrrolo[2,3-d]pyrimidin-4-yl)-1H-pyrazol-1-yl]-1-[1-(1,2,3,4-tetrahydronaphthalen-2-ylcarbonyl)piperidin-4-yl]azetidin-3-yl}acetonitrile] | 2.2 | 5 to 20 nM | 10 to 50 nM
N#CCC1(n2ccc(-c3ncnc4[nH]ccc34)c2)CN(C2CCN(C(=O)c3c(F)cc(C#N)cc3F)CC2)C1 [Example 265, 4-[(4-{3-(cyanomethyl)-3-[3-(7H-pyrrolo[2,3-d]pyrimidin-4-yl)-1H-pyrrol-1-yl]azetidin-1-yl}piperidin-1-yl)carbonyl]-3,5-difluorobenzonitrile] | 6.6 | 5 to 20 nM | 50 to 100 nM
N#CCC1(n2cc(-c3ncnc4[nH]ccc34)cn2)CN(C2CCN(C(=O)c3cc4cccc(C(F)(F)F)c4s3)CC2)C1 [Example 95, [3-[4-(7H-pyrrolo[2,3-d]pyrimidin-4-yl)-1H-pyrazol-1-yl]-1-(1-{[7-(trifluoromethyl)-1-benzothien-2-yl]carbonyl}piperidin-4-yl)azetidin-3-yl]acetonitrile] | 2.7 | ≤ 5 nM | ≤ 10 nM
N#CCC1(n2cc(-c3ccnc4[nH]ccc34)cn2)CN(C2CCN(C(=O)c3cnc(C(F)(F)F)cn3)CC2)C1 [Example 301, [3-[4-(1H-pyrrolo[2,3-b]pyridin-4-yl)-1H-pyrazol-1-yl]-1-(1-{[5-(trifluoromethyl)pyrazin-2-yl]carbonyl}piperidin-4-yl)azetidin-3-yl]acetonitrile] | 3.3 | 20 to 30 nM | 50 to 100 nM
N#CCC1(n2cc(-c3ncnc4[nH]ccc34)cn2)CN(C2CCN(Cc3ccnc(Br)c3)CC2)C1 [Example 226, {1-{1-[(2-bromopyridin-4-yl)methyl]piperidin-4-yl}-3-[4-(7H-pyrrolo[2,3-d]pyrimidin-4-yl)-1H-pyrazol-1-yl]azetidin-3-yl}acetonitrile] | 1.9 | 5 to 20 nM | 10 to 50 nM
N#CCC1(n2cc(-c3ncnc4[nH]ccc34)cn2)CN(C2CCN(C(=O)c3cccc(F)c3F)CC2)C1 [Example 41, {1-[1-(2,3-difluorobenzoyl)piperidin-4-yl]-3-[4-(7H-pyrrolo[2,3-d]pyrimidin-4-yl)-1H-pyrazol-1-yl]azetidin-3-yl}acetonitrile] | 4.9 | ≤ 5 nM | ≤ 10 nM
N#CCC1(n2cc(-c3ncnc4[nH]ccc34)cn2)CN(C2CCN(C(=O)OCC3CC3)CC2)C1 [Example 391, cyclopropylmethyl 4-{3-(cyanomethyl)-3-[4-(7H-pyrrolo[2,3-d]pyrimidin-4-yl)-1H-pyrazol-1-yl]azetidin-1-yl}piperidine-1-carboxylate] | 10.6 | 5 to 20 nM | 50 to 100 nM
N#CCC1(n2cc(-c3ncnc4[nH]ccc34)cn2)CN(C2CCN(C(=O)c3cc(CN4CCC4)nc(C(F)(F)F)n3)CC2)C1 [Example 372, {1-(1-{[6-(azetidin-1-ylmethyl)-2-(trifluoromethyl)pyrimidin-4-yl]carbonyl}piperidin-4-yl)-3-[4-(7H-pyrrolo[2,3-d]pyrimidin-4-yl)-1H-pyrazol-1-yl]azetidin-3-yl}acetonitrile] | 67.3 | ≤ 5 nM | 10 to 50 nM
N#CCC1(n2cc(-c3ncnc4[nH]ccc34)cn2)CN(C2CCN(C(=O)c3ccc(-c4cc(F)cc(C#N)c4)c(F)c3)CC2)C1 [Example 128, 4′-[(4-{3-(cyanomethyl)-3-[4-(7H-pyrrolo[2,3-d]pyrimidin-4-yl)-1H-pyrazol-1-yl]azetidin-1-yl}piperidin-1-yl)carbonyl]-2′,5-difluorobiphenyl-3-carbonitrile] | 3.5 | ≤ 5 nM | 10 to 50 nM
N#CCC1(n2cc(-c3ncnc4[nH]ccc34)cn2)CN(C2CCN(C(=O)c3ccc(F)cc3F)CC2)C1 [Example 42, {1-[1-(2,4-difluorobenzoyl)piperidin-4-yl]-3-[4-(7H-pyrrolo[2,3-d]pyrimidin-4-yl)-1H-pyrazol-1-yl]azetidin-3-yl}acetonitrile] | 6.7 | ≤ 5 nM | ≤ 10 nM
N#CCC1(n2ccc(-c3ncnc4[nH]ccc34)c2)CN(C2CCN(C(=O)c3ccnc(C(F)(F)F)n3)CC2)C1 [Example 345, [3-[3-(7H-Pyrrolo[2,3-d]pyrimidin-4-yl)-1H-pyrrol-1-yl]-1-(1-{[2-(trifluoromethyl)pyrimidin-4-yl]carbonyl}piperidin-4-yl)azetidin-3-yl]acetonitrile] | 11.9 | 5 to 20 nM | 50 to 100 nM
N#CCC1(n2cc(-c3ccnc4[nH]ccc34)cn2)CN(C2CCN(C(=O)Nc3ccc(C#N)cc3Cl)CC2)C1 [Example 313, N-(2-chloro-4-cyanophenyl)-4-{3-(cyanomethyl)-3-[4-(1H-pyrrolo[2,3-b]pyridin-4-yl)-1H-pyrazol-1-yl]azetidin-1-yl}piperidine-1-carboxamide] | 14.3 | ≤ 5 nM | 10 to 50 nM
N#CCC1(n2cc(-c3ncnc4[nH]ccc34)cn2)CN(C2CCN(C(=O)OCc3ccccc3)CC2)C1 [Example 389, benzyl 4-{3-(cyanomethyl)-3-[4-(7H-pyrrolo[2,3-d]pyrimidin-4-yl)-1H-pyrazol-1-yl]azetidin-1-yl}piperidine-1-carboxylate] | 6.5 | ≤ 5 nM | 10 to 50 nM
N#CCC1(n2cc(-c3ncnc4[nH]ccc34)cn2)CN(C2CCN(Cc3cc(Cl)cc(Cl)c3)CC2)C1 [Example 210, {1-[1-(3,5-dichlorobenzyl)piperidin-4-yl]-3-[4-(7H-pyrrolo[2,3-d]pyrimidin-4-yl)-1H-pyrazol-1-yl]azetidin-3-yl}acetonitrile] | 4.3 | ≤ 5 nM | ≤ 10 nM
N#CCC1(n2cc(-c3ncnc4[nH]ccc34)cn2)CN(C2CCN(C(=O)c3ccc(-c4ccc5nccn5c4)c(F)c3)CC2)C1 [Example 135, {1-[1-(3-fluoro-4-imidazo[1,2-a]pyridin-6-ylbenzoyl)piperidin-4-yl]-3-[4-(7H-pyrrolo[2,3-d]pyrimidin-4-yl)-1H-pyrazol-1-yl]azetidin-3-yl}acetonitrile] | 7.1 | ≤ 5 nM | 10 to 50 nM
N#CCC1(n2cc(-c3ncnc4[nH]ccc34)cn2)CN(C2CCN(C(=O)c3cc(F)ccc3F)CC2)C1 [Example 43, {1-[1-(2,5-difluorobenzoyl)piperidin-4-yl]-3-[4-(7H-pyrrolo[2,3-d]pyrimidin-4-yl)-1H-pyrazol-1-yl]azetidin-3-yl}acetonitrile] | 5.0 | ≤ 5 nM | 10 to 50 nM
CS(=O)(=O)N1CCC(N2CC(CC#N)(n3ccc(-c4ncnc5[nH]ccc45)c3)C2)CC1 [Example 348, {1-[1-(Methylsulfonyl)piperidin-4-yl]-3-[3-(7H-pyrrolo[2,3-d]pyrimidin-4-yl)-1H-pyrrol-1-yl]azetidin-3-yl}acetonitrile] | 3.2 | ≤ 5 nM | 10 to 50 nM
N#CCC1(n2cc(-c3ncnc4[nH]ccc34)cn2)CN(C2CCN(C(=O)c3ccc(C(F)(F)F)cc3F)CC2)C1 [Example 82, {1-{1-[2-fluoro-4-(trifluoromethyl)benzoyl]piperidin-4-yl}-3-[4-(7H-pyrrolo[2,3-d]pyrimidin-4-yl)-1H-pyrazol-1-yl]azetidin-3-yl}acetonitrile] | 5.3 | ≤ 5 nM | ≤ 10 nM
N#CCC1(n2cc(-c3ncnc4[nH]ccc34)cn2)CN(C2CCN(C(=O)Nc3c(F)cccc3F)CC2)C1 [Example 156, 4-{3-(cyanomethyl)-3-[4-(7H-pyrrolo[2,3-d]pyrimidin-4-yl)-1H-pyrazol-1-yl]azetidin-1-yl}-N-(2,6-difluorophenyl)piperidine-1-carboxamide] | 11.2 | ≤ 5 nM | 10 to 50 nM
Cc1ccccc1NC(=O)N1CCC(N2CC(CC#N)(n3cc(-c4ncnc5[nH]ccc45)cn3)C2)CC1 [Example 185, 4-{3-(cyanomethyl)-3-[4-(7H-pyrrolo[2,3-d]pyrimidin-4-yl)-1H-pyrazol-1-yl]azetidin-1-yl}-N-(2-methylphenyl)piperidine-1-carboxamide] | 9.5 | ≤ 5 nM | 10 to 50 nM
N#CCC1(n2cc(-c3ncnc4[nH]ccc34)cn2)CN(C2CCN(C(=O)c3cccc(C#N)c3)CC2)C1 [Example 11, 3-[(4-{3-(cyanomethyl)-3-[4-(7H-pyrrolo[2,3-d]pyrimidin-4-yl)-1H-pyrazol-1-yl]azetidin-1-yl}piperidin-1-yl)carbonyl]benzonitrile] | 7.2 | 5 to 20 nM | 10 to 50 nM
N#CCC1(n2cc(-c3ccnc4[nH]ccc34)cn2)CN(C2CCN(C(=O)Nc3cnccc3C(F)(F)F)CC2)C1 [Example 308, 4-{3-(cyanomethyl)-3-[4-(1H-pyrrolo[2,3-b]pyridin-4-yl)-1H-pyrazol-1-yl]azetidin-1-yl}-N-[4-(trifluoromethyl)pyridin-3-yl]piperidine-1-carboxamide] | 10.4 | ≤ 5 nM | 50 to 100 nM
N#CCC1(n2ccc(-c3ncnc4[nH]ccc34)c2)CN(C2CCN(C(=O)c3c(F)cccc3F)CC2)C1 [Example 279, {1-[1-(2,6-difluorobenzoyl)piperidin-4-yl]-3-[3-(7H-pyrrolo[2,3-d]pyrimidin-4-yl)-1H-pyrrol-1-yl]azetidin-3-yl}acetonitrile] | 4.1 | ≤ 5 nM | ≤ 10 nM
